Results reported in PMC4553520, “Laboratory and Simulated Field Bioassays to Evaluate Larvicidal Activity of Pinus densiflora Hydrodistillate, Its Constituents and Structurally Related Compounds against Aedes albopictus, Aedes aegypti and Culex pipiens pallens in Relation to Their Inhibitory Effects on Acetylcholinesterase Activity” (Insects, 2013).
Values after ≈ are worked out from the molar mass of the structure shown.

How the values were obtained:
[1] = tested on: early third-instar larvae of Ae. aegypti; assay: Direct-contact mortality bioassay, Ae. aegypti larvae; details: for LC50: Aedes aegypti, 24 h, read-out: LC50 (Ae. aegypti), mg/L (95% CL); for LC50 (Ae. aegypti), mg/L (95% CL): early third-instar larvae, 24 h exposure, direct contact
Method: (§1) Direct-contact mortality bioassays were employed to evaluate the toxicity of all compounds, using early third-instar larvae of each mosquito species. Each compound was dissolved in methanol, and then further diluted in distilled water containing Triton X-100 (20 µL/L). Groups of 20 mosquito larvae of each species were put into separate paper cups (270 mL), each containing different compound solutions (250 mL). The toxicity of each compound was determined by repeating this experimental procedure with different concentrations, ranging from 5 to 200 mg/L. Temephos and fenthion served as standard references and were similarly formulated as well. Controls contained only methanol-Triton X-100 carrier solution in distilled water.
(§2) Both treated and control larvae were kept under the same conditions as those used for colony maintenance. […] Due to certain constraints arising from the number of available larvae, all necessary bioassays could not be conducted simultaneously and thus, treatments were conducted over a period of time, with a separate control treatment included each time. Freshly prepared compound solutions were used for each round of bioassays. All bioassays were repeated three times.
(§3) Concentration-mortality data were subjected to probit analysis using SAS [20]. […] Furthermore, for the compounds tested in AChE inhibition assays, a correlation analysis between their LC50 values and IC50 values was conducted using SAS [20].

[2] = tested on: early third-instar larvae of Ae. albopictus; assay: Direct-contact mortality bioassay, Ae. albopictus larvae; details: for LC50: Aedes albopictus, 24 h, read-out: LC50 (Ae. albopictus), mg/L (95% CL); for LC50 (Ae. albopictus), mg/L (95% CL): early third-instar larvae, 24 h exposure, direct contact
Method: as §1, §2, §3

[3] = tested on: early third-instar larvae of Cx. p. pallens; assay: Direct-contact mortality bioassay, laboratory-reared Cx. p. pallens larvae; details: for LC50: Culex pipiens, 24 h, read-out: LC50 (Cx p. pallens), mg/L (95% CL); for LC50 (Cx p. pallens), mg/L (95% CL): laboratory-reared early third-instar larvae, 24 h exposure, direct contact
Method: as §1, §2, §3

[4] = tested on: field-collected larvae of Cx. p. pallens; assay: Semi-field bioassay, field-collected Cx. p. pallens larvae; details: for LC50: Culex pipiens, 24 h, read-out: LC50, mg/L, Field-collected; for Resistance ratio: field-collected vs laboratory-reared Cx. p. pallens larvae (LC50 ratio)
Method: Larvae of wild mosquitoes were field-collected from irrigated rice fields in Yongin, Korea in early August 2012. A satellite view of the larvae collection site is included in Figure 1 [13].
The buckets were treated with test compounds and covered with nylon mesh screen to prevent other mosquitoes and insects from laying eggs. The buckets were then placed back at the initial collection site and were allowed to stand for 24 h, after which the mortality data were recorded. Temephos and fenthion served as standard references.
as §3

Compound | LC50 [1] | LC50 [2] | LC50 [3] | LC50 (Ae. aegypti), mg/L (95% CL) [1] | LC50 (Ae. albopictus), mg/L (95% CL) [2] | LC50 (Cx p. pallens), mg/L (95% CL) [3] | LC50 [4] | Resistance ratio [4]
CC(=O)OC/C=C(\C)CCC=C(C)C [Geranyl acetate] | 21.4 mg/L | 33 mg/L | 30.3 mg/L |  |  |  |  | 
CC(C)=CCCC(C)CCO (stereo not drawn) [(+)-β-citronellol] |  |  |  | 93.46 (85.80–101.82) mg/L | 90.89 (83.26–99.00) mg/L | 87.81 (80.62–95.50) mg/L |  | 
CC12CCC(CC1)C(C)(C)O2 [1,8-cineole] | 73.3 mg/L (≈ 475 µM) | 73.5 mg/L (≈ 476 µM) | 72.9 mg/L (≈ 472 µM) |  |  |  |  | 
C=C1C2CCC(C2)C1(C)C (stereo not drawn) [Camphene] | 72.9 mg/L (≈ 535 µM) | 79.1 mg/L (≈ 581 µM) | 80.1 mg/L (≈ 588 µM) |  |  |  |  | 
C=C(C)C1CC=C(C)CC1 (single isomer, unassigned; (+)) [(+)-limonene] | 15.3 mg/L (≈ 112 µM) | 10.8 mg/L (≈ 79.1 µM) | 10.8 mg/L (≈ 79 µM) |  |  |  | 10.5 mg/L (≈ 77.4 µM) | 0.98
Cc1ccc(C(C)C)cc1O [Carvacrol] | 101 mg/L (≈ 673 µM) | 95 mg/L (≈ 633 µM) | 91.9 mg/L (≈ 612 µM) |  |  |  |  | 
CC(C)=CCC[C@H](C)CC=O [(−)-citronellal] | 37.5 mg/L (≈ 243 µM) | 41.1 mg/L (≈ 266 µM) | 41.9 mg/L (≈ 272 µM) |  |  |  |  | 
CC1(C)C2CCC1(C)C(O)C2 (stereo not drawn) [Borneol] | > 150 mg/L | > 150 mg/L | > 150 mg/L |  |  |  |  | 
CC1=CC[C@H](C(C)C)C=C1 [α-phellandrene] | 19.4 mg/L (≈ 142 µM) | 16.9 mg/L (≈ 124 µM) | 14 mg/L (≈ 103 µM) |  |  |  |  | 
CC1=CC(=O)[C@H]2C[C@@H]1C2(C)C [(−)-verbenone] | 96.8 mg/L (≈ 644 µM) | 89.4 mg/L (≈ 595 µM) | 89.1 mg/L (≈ 593 µM) |  |  |  |  | 
CC(C)=CCCC(C)CCO (stereo not drawn) [(−)-β-citronellol] |  |  |  | 75.31 (68.31–83.22) mg/L | 71.99 (64.67–80.37) mg/L | 66.26 (59.63–73.33) mg/L |  | 
Cc1cccc(C(C)C)c1 [m-cymene] | 69.7 mg/L (≈ 519 µM) | 62 mg/L (≈ 462 µM) | 59.4 mg/L (≈ 442 µM) |  |  |  |  | 
COP(=S)(OC)Oc1ccc(Sc2ccc(OP(=S)(OC)OC)cc2)cc1 [Temephos, reference compound] | 0.015 mg/L (≈ 0.0322 µM) | 0.01 mg/L (≈ 0.0214 µM) | 0.013 mg/L (≈ 0.0279 µM) |  |  |  | 1.68 mg/L (≈ 3.6 µM) | 129.23
CC1=CCC(O)(C(C)C)CC1 (single isomer, unassigned; (+)) [(+)-terpinen-4-ol] |  |  |  | 78.73 (71.24–85.73) mg/L | 98.28 (91.85–105.07) mg/L | 86.25 (78.22–95.55) mg/L |  | 
C=CC(=C)CCC=C(C)C [Myrcene, β-myrcene] | 39.5 mg/L (≈ 290 µM) | 36 mg/L (≈ 264 µM) | 41.3 mg/L (≈ 303 µM) |  |  |  |  | 
CC(C)=CCC/C(C)=C/CO [Geraniol] | 73.4 mg/L (≈ 476 µM) | 68.2 mg/L (≈ 442 µM) | 57 mg/L (≈ 369 µM) |  |  |  |  | 
C=CC(C)(O)CCC=C(C)C (stereo not drawn) [Linalool] | 113 mg/L (≈ 736 µM) | 129 mg/L (≈ 837 µM) | 144 mg/L (≈ 935 µM) |  |  |  |  | 
CC1(C)C2CC=C(CO)C1C2 (single isomer, unassigned; (-)) [(−)-myrtenol] |  |  |  | >150 mg/L | >150 mg/L | >150 mg/L |  | 
C=C1CC[C@H]2O[C@]2(C)CC[C@@H]2[C@@H]1CC2(C)C [Caryophyllene oxide] |  |  |  | 113.00 (104.54–123.59) mg/L | 107.62 (99.82–116.81) mg/L | 126.28 (110.92–158.13) mg/L |  | 
C=C1CC[C@@H]2[C@H]([C@@H]3[C@H](C)CC[C@@H]13)C2(C)C [Aromadendrene] |  |  |  | >150 mg/L | 129.21 (118.02–145.97) mg/L | 147.91 (127.93–188.26) mg/L |  | 

Compound | LC50 [1] | LC50 [2] | LC50 [3] | LC50 (Ae. aegypti), mg/L (95% CL) [1] | LC50 (Ae. albopictus), mg/L (95% CL) [2] | LC50 (Cx p. pallens), mg/L (95% CL) [3] | LC50 [4] | Resistance ratio [4]
CC1=CC=C(C(C)C)CC1 [α-terpinene] | 24.9 mg/L (≈ 182 µM) | 21.9 mg/L (≈ 161 µM) | 23.9 mg/L (≈ 175 µM) |  |  |  |  | 
C=C1CC/C=C(\C)CC[C@@H]2[C@@H]1CC2(C)C [β-caryophyllene] | 38.6 mg/L (≈ 189 µM) | 39.5 mg/L (≈ 193 µM) | 47.8 mg/L (≈ 234 µM) |  |  |  |  | 
COP(=S)(OC)Oc1ccc(SC)c(C)c1 [Fenthion, reference compound] | 0.022 mg/L (≈ 0.079 µM) | 0.012 mg/L (≈ 0.0431 µM) | 0.027 mg/L (≈ 0.097 µM) |  |  |  | 3.12 mg/L (≈ 11.2 µM) | 115.56
CC(C)=CCC/C(C)=C\CO [Nerol] | 121 mg/L (≈ 783 µM) | 112 mg/L (≈ 723 µM) | 111 mg/L (≈ 723 µM) |  |  |  |  | 
Cc1ccc(C(C)C)cc1 [p-cymene] | 33.5 mg/L (≈ 249 µM) | 32.8 mg/L (≈ 245 µM) | 29.7 mg/L (≈ 221 µM) |  |  |  |  | 
CC1=CCC(C(C)C)=CC1 [γ-terpinene] | 20.5 mg/L (≈ 150 µM) | 16.2 mg/L (≈ 119 µM) | 17.8 mg/L (≈ 130 µM) |  |  |  |  | 
C=CC(C)(CCC=C(C)C)OC(C)=O (stereo not drawn) [Linanyl acetate] | 97.8 mg/L | 98.1 mg/L | 97 mg/L |  |  |  |  | 
CC(C)=CCCC(C)CC=O (single isomer, unassigned; (+)) [(+)-citronellal] |  |  |  | 48.23 (42.42–55.64) mg/L | 46.39 (41.08–52.95) mg/L | 49.47 (43.52–57.04) mg/L |  | 
CC1=C[C@H](O)[C@H]2C[C@@H]1C2(C)C (relative stereo) [(S)-cis-verbenol] |  |  |  | >150 mg/L | 136.86 (121.92–161.87) mg/L | 140.41 (124.89–167.57) mg/L |  | 
C=C(C)C1CC=C(C)[C@@H](O)C1 (stereo partly drawn) [Carveol] | 124 mg/L (≈ 814 µM) | 121 mg/L (≈ 796 µM) | 114 mg/L (≈ 746 µM) |  |  |  |  | 
CC1(C)[C@@H]2CC[C@H](CO)[C@H]1C2 (relative stereo) [(−)-cis-myrtanol] |  |  |  | >150 mg/L | >150 mg/L | >150 mg/L |  | 
CC(=O)OC(C)(C)C1CC=C(C)CC1 (stereo not drawn) [Terpinyl acetate] |  |  |  | 96.32 (89.89–103.04) mg/L | 72.39 (65.05–80.55) mg/L | 58.27 (52.60–64.82) mg/L |  | 
CC(=O)OC1CC2CCC1(C)C2(C)C (stereo not drawn) [Bornyl acetate] | > 150 mg/L | > 150 mg/L | > 150 mg/L |  |  |  |  | 
C=C(C)[C@H]1CC=C(C)C(=O)C1 [(S)-(+)-carvone] |  |  |  | 42.14 (39.62–44.62) mg/L | 43.83 (41.78–45.91) mg/L | 46.19 (43.54–49.12) mg/L |  | 
CC1=CC[C@@H]2C[C@H]1C2(C)C [(1R)-(+)-α-pinene] | 51.3 mg/L (≈ 376 µM) | 55.6 mg/L (≈ 408 µM) | 60.8 mg/L (≈ 447 µM) |  |  |  |  | 
CC1CCC(C(C)C)C(O)C1 (stereo not drawn) [Menthol] | 81.2 mg/L (≈ 520 µM) | 69.6 mg/L (≈ 445 µM) | 67.3 mg/L (≈ 430 µM) |  |  |  |  | 
(−)-terpinen-4-ol |  |  |  | 72.36 (66.33–78.22) mg/L | 92.16 (84.28–101.24) mg/L | 85.66 (75.71–97.28) mg/L |  | 
CC12CCC(CC1=O)C2(C)C (stereo not drawn) [Camphor] | > 150 mg/L | > 150 mg/L | > 150 mg/L |  |  |  |  | 
Cc1ccccc1C(C)C [o-cymene] |  |  |  | 39.60 (33.25–46.71) mg/L | 48.57 (42.14–55.77) mg/L | 47.78 (40.96–55.39) mg/L |  | 
CC1=CC[C@H]2C[C@@H]1C2(C)C [(1S)-(−)-α-pinene] | 40 mg/L (≈ 293 µM) | 28.6 mg/L (≈ 210 µM) | 32 mg/L (≈ 235 µM) |  |  |  |  | 
